Assay results taken from patent publication US20240327382A1 (ALMAC DISCOVERY LIMITED, priority 2021, published 2024).
pIC50: −log10 of the molar value. Each block holds one compound with its values, some of them ahead of it.

How the values were obtained:
USP19 [1] = biological target: T1, USP19 (Homo sapiens, UniProt O94966); assay: Cellular target engagement using HTRF assay (USP19-Flag transfected cells); format: cell-based; settings: HEK293T cells; read-out: HTRF TE IC50
T1 construct: expressed in transfected cells; host or cells: HEK293T
T1 sequence (O94966 1-1318): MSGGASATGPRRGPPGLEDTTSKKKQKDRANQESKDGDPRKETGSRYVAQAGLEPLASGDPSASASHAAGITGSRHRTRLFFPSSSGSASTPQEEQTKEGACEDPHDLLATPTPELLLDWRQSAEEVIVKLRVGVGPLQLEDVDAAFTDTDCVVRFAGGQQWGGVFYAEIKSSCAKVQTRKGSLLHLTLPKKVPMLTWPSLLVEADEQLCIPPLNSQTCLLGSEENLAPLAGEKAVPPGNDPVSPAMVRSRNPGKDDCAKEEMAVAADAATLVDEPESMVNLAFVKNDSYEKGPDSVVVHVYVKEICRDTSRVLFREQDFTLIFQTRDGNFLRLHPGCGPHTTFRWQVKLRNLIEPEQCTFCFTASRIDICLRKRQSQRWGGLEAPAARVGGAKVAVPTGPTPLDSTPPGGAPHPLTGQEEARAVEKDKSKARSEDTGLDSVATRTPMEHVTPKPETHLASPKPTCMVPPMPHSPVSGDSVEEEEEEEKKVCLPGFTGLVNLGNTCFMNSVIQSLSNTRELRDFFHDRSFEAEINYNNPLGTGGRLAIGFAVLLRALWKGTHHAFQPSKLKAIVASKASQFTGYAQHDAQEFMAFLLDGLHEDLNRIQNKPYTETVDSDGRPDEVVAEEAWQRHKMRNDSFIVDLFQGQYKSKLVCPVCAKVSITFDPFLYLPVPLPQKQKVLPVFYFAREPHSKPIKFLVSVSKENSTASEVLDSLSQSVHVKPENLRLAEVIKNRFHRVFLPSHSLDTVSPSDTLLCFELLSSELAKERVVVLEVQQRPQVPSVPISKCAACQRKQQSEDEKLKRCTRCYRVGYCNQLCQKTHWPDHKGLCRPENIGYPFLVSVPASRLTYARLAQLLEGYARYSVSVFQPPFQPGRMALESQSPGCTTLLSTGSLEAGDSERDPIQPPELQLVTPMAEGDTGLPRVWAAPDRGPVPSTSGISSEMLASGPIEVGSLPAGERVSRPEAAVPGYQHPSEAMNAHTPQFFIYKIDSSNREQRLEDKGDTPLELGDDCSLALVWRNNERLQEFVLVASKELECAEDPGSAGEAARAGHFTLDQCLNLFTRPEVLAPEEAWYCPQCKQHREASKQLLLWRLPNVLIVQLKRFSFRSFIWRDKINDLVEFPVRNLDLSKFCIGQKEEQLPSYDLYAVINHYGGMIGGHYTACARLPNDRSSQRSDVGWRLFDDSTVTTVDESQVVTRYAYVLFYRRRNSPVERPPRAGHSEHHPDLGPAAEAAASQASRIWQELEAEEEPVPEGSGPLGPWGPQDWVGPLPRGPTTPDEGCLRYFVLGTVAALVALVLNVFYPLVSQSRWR
Experimental: USP19 cellular target engagement was determined in a homogenous time resolved fluorescence (HTRF) assay using HA-tagged ubiquitin vinyl pentynyl sulfone (VPS) probe (UbiQ-193, UbiQ Bio) and a USP19-Flag overexpression construct. Inhibitors were stored as 10 mM DMSO stocks in an inert environment (low humidity, dark, low oxygen, rt) using the StoragePod® system (Roylan Developments). USP19-Flag transfected cells were incubated with serially diluted compound in an 11 point dose response curve (from 50 μM to 0.01 nM) for 2 h and then washed in PBS and lysed. Unless otherwise stated, all HTRF reagents were purchased from CisBio. HTRF assays using cell lysates were completed in 384 well plates (Greiner) in a 20 μL total volume. Cell lysates were incubated with HA-tagged ubiquitin VPS probe for 40 min in PPI detection buffer prior to addition of anti-HA and anti-FLAG HTRF detection reagents. HTRF was measured every 1 h for 18 h using a Pherastar FSX plate reader (excitation of 337 nm, emission of 620/665 nm). Data was normalised to DMSO (no compound controls) and fitted using IC50 values derived using Prism (GraphPad) using nonlinear regression curve fitting.

[2] = Caco-2 permeability assay; format: in vitro ADME; settings: human, apical to basolateral (A:B), read-out: caco-2 Papp AB
Experimental: Caco-2 cells are commonly used as an in vitro model for the prediction of human intestinal absorption of test compounds. When cultured, Caco-2 cells (derived from a human colorectal carcinoma) spontaneously differentiate into monolayers of polarised enterocytes. The cells are seeded on multiwell-insert plates and form a confluent monolayer over 20 d before the assay. On day 20, compound was added to the apical side of the membrane and the flux of the compound across the monolayer was monitored over 2 h. All data was generated at Cyptotex.

[3] = Thermodynamic solubility assay; format: physicochemical; settings: aqueous buffer, thermodynamic from solid, PBS buffer pH 7.4, read-out: TSol
Experimental: Test compound (˜0.5 mg, accurately weighed) was suspended in PBS buffer pH 7.4 (Dulbecco A) to a concentration of 1 mg/mL in a high recovery glass vial in duplicate. The suspensions were shaken at 300 rpm at rt for 64 h. About 250 μL of suspension were then transferred to a MultiScreen® Solubility filter plate (Millipore) in duplicate. Concentrations of the filtrates were then quantified against a 5-point calibration curve in a mixture of acetonitrile/PBS buffer (top concentration […]). After filtration and matrix match, the calibration and assay plates were analysed on a Bioteck Synergy 4 plate reader (240-400 nm). Final concentration of the test compound in the filtrate was calculated using the slope of the calibration curve.

male C57bl/6 mice = assay: Sciatic nerve denervation muscle wasting model; format: in vivo, mouse; settings: 75 mg/kg IP twice daily
Experimental: To induce muscle wasting, a 1 cm segment of the sciatic nerve in the thigh was removed from mice (male C57bl/6 mice at 8-10 weeks of age; n=10 per group) under isoflurane anaesthesia and analgesia with carprofen. A sham operation was carried out in the opposite leg as a control.
Mice were randomised into Vehicle or Test groups, with all animals weighed to ensure a similar mean weight in each group. ADC-141, a USP19 inhibitory compound at 75 mg/kg or Vehicle was administered IP twice daily starting from the evening post-operation.
Mice were sacrificed 14 days later. Fat pads, liver, gastrocnemius and tibialis anterior muscles were harvested. Tissue mass were measured in both groups.

USP19 [4] = assay: Cellular target engagement using western blotting (Ub-PA / Ub-VME probe); format: cell-based; settings: breast cancer, neuroblastoma and mouse skeletal muscle cell lines
Experimental: Cells from a breast cancer cell line, a neuroblastoma cell line and a mouse skeletal muscle cell line were treated with a USP19 inhibitor compound (ADC-141) for 2 hrs, lysed (lysis buffer: 50 mM Tris pH 7.4; 150 mM NaCl; 5 mM MgCl2; 0.5 mM EDTA; 0.5% NP40; 10% Glycerol; 2 mM DTT) and Ubiquitin-propargylamine (Ub-PA; UbiQ) or Ubiquitin-vinyl methyl ester (Ub-VME; Almac Sciences Scotland Limited) was then added. Samples were analysed by western blotting probing for USP19 (EC50 determined by densitometry).

Full-length USP19 = biological target: T2, Full-length USP19 (Homo sapiens, UniProt O94966); assay: USP19 fluorescence polarisation (FP) assay, Ubiquitin-Lys-TAMRA substrate; format: biochemical; settings: fluorescence polarisation assay, qualitative
T2 construct: Full-length USP19 was purchased from Boston Biochem (E-576); purchased Boston Biochem E-576
T2 sequence (O94966 1-1318): T1 sequence (O94966 1-1318)
How it was run: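 Full-length human USP19 (added at 2.5 nM) was preincubated 30 min at RT with inhibitor (serial dilutions 200 μM to 2 μM) in 50 mM HEPES pH 7.4, 150 mM NaCl, 5 mM DTT, 0.05% BSA, 0.05% CHAPS. Ubiquitin-Lys-TAMRA isopeptide substrate (added at 500 nM) started the reaction, and FP (Ex 530/Em 575 nm) was read every 15 min over 90 min. IC50 came from non-linear regression of signal normalised to no-compound control, averaged over at least two duplicate experiments.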

[5] = test system: diet-induced obese (DIO) mouse; assay: Diet-induced obesity (DIO) mouse model with OGTT; format: in vivo, Male C57BL6/J mice; settings: 5 or 25 mg/kg i.p. BID
Experimental: To assess obesity and insulin resistance, a diet-induced obesity mouse model was used.
Male C57BL6/J mice were continuously provided with high-fat diet (D12451, 45% kcal as fat; Research Diets, New Jersey, USA) and filtered tap water ad libitum for the duration of the study. From day 0, mice were administered vehicle i.p. BID, USP19 inhibitor (ADC-141) i.p. BID at 5 mg/kg or 25 mg/kg, or positive control liraglutide 0.1 mg/kg s.c. BID.
Body weight was measured daily. On Day 13, body composition was be assessed by DEXA. On Day 15, fasting glucose and insulin levels were measured before and during an oral glucose tolerance test (OGTT) to assess improvements in glucose control. The OGTT was performed following an overnight fast. […] An OGTT was performed the following morning (approx. 16 h post fast). Mice were dosed with vehicle or test compound (starting at 08.45) to a timed schedule 30 minutes prior to the administration of the glucose challenge (2.0 g/kg po). Blood samples were taken immediately prior to dosing (B1), immediately prior to glucose administration (B2) and 15, 30, 60 and 120 minutes after glucose administration.

[6] = Kinetic solubility (KSol); format: physicochemical
In vivo mouse PK = settings: C57BL/6N mice, IV 1 mg/kg

KSol [6]: 1 µM
Structure (SMILES): C[C@H](CC(F)(F)F)C(=O)N1CC[C@@](O)(Cn2cnc(-c3ccccc3)cc2=O)C2(CCCC2)C1 [F 11 9 N W 11]

clearance (In vivo mouse PK): 3 mL/min/kg
half-life (In vivo mouse PK; read-out: IV t1/2 (converted)): 2 h
solubility thermodynamic at 64 h [3]: 1 µM
Structure (SMILES): N[C@@H]1CCN(C(=O)N2CC[C@@](O)(Cn3cnc(-c4ccccc4)cc3=O)C3(CCCC3)C2)[C@H](c2ccccc2)C1 [F 11 9 N W032, reference compound]

The remaining lines, values behind:

Structure (SMILES): O=C(N1CC[C@@H](Cn2ccc(-c3ccccc3)cc2=O)C2(CCCC2)C1)N1CCNC[C@H]1c1ccccc1
pIC50 (USP19 [1]): 5.52
Papp A→B at 2 h [2]: 1 ×10⁻⁶ cm/s
solubility thermodynamic at 64 h [3]: 1 µM

Structure (SMILES): C[C@H](CC1CCCCC1)C(=O)N1CC[C@@](O)(Cn2cc(C(=O)N3CCNCC3)c(-c3ccccc3)cc2=O)C2(CCCC2)C1 [ADC-141, 1-(((S)-7-((R)-3-cyclohexyl-2-methylpropanoyl)-10-hydroxy-7-azaspiro[4.5]decan-10-yl)methyl)-4-phenyl-5-(piperazine-1-carbonyl)pyridin-2(1H)-one]
liver mass (male C57bl/6 mice; 2 weeks, vs vehicle): increase in liver mass
mass of the epididymal fat pad (male C57bl/6 mice; 2 weeks, vs vehicle): significantly smaller fat pads
muscle wasting in the gastrocnemius muscle (male C57bl/6 mice; 14 days, trend did not reach significance): reduced
loss of muscle mass in the tibialis anterior muscle (male C57bl/6 mice; 14 days, vs vehicle): significantly lower loss of muscle mass
cell permeability (USP19 [4]): good cell permeability
EC50 determined by densitometry (USP19 [4]; 2 hrs treatment): low nanomolar
USP19 inhibitory activity (Full-length USP19): shown to have USP19 inhibitory activity
fat mass ([5]; DEXA Day 13): reduction in fat mass
lean body mass ([5]; DEXA Day 13): preserved
plasma glucose in OGTT ([5]; Day 15): decreased plasma glucose
plasma insulin in OGTT ([5]; Day 15): decreased plasma insulin
OGTT response ([5]; Day 15, glucose 2.0 g/kg po): dose-dependent improvement in OGTT response
overall body weight gain ([5]; high-fat diet): reduction in overall body weight gain
cumulative food intake ([5]; vs vehicle control): reduction in cumulative food intake

Structure (SMILES): O=C(N1CC[C@@H](Cn2cnc(-c3ccccc3)cc2=O)C2(CCCC2)C1)N1CCNC[C@H]1c1ccccc1
pIC50 (USP19 [1]): 6.00
Papp A→B at 2 h [2]: 1 ×10⁻⁶ cm/s
